Assay results as given in patent US20110064669A1, “USE OF GALANIN IN A METHOD OF TREATING NEURODEGENERATIVE DISEASES OR CONDITIONS” (HOWARD FLOREY INSTITUTE OF EXPERIMENTAL PHYSIOLOGY AND …, priority 2007, published 2011).
“Also recorded” adds a separate entry of the source. No end group written: not given here.

Assays:
[1] = tested on: post-mitotic OC (primary rat OPC matured by PDGF withdrawal); experiment: Oligodendrocyte survival assay (calcein / ethidium homodimer live-dead count); assay type: cell-based
Description: Whether or not galanin itself is a survival factor for oligodendrocytes in vitro was determined. Primary rat OPC in culture were matured for 48 hours by PDGF withdrawal in the presence of insulin, passaged into poly-1-lysine coated 24 well-plates at a density of 200 cells/well in Sato medium alone or Sato medium supplemented with various concentrations of recombinant rat galanin (Peninsula Biosciences).
Twenty wells/condition were counted in each survival assay and results were verified in four independent experiments using separate batches of primary cells. All counts were performed by an investigator blinded to the experimental condition.

[2] = tested on: cultured primary oligodendrocytes; experiment: Affymetrix gene chip analysis of LIF-induced mRNA in cultured primary oligodendrocytes; assay type: cell-based, rat; details: 8 hours of LIF exposure, versus NT3, insulin or Sato only
Description: In order to assess mRNA induction promoted by LIF signaling in oligodendrocytes, an Affymetrix array analysis was conducted of cultured primary oligodendrocytes. A2B5 positive, O1 negative oligodendrocyte progenitor cells were isolated by sequential immunopanning from P6 rat optic nerves. After expansion in culture (2 passages, 11 days) in Sato medium in the presence of insulin, platelet-derived growth factor (PDGF) and neurotrophin-3 (NT3) (no CNTF or LIF), the cells were matured by 48 hours of PDGF withdrawal. The NT3 was also withdrawn for this time-period but insulin was maintained. In order to determine gene expression profiles induced by various cytokines, the matured cells were then exposed to one of four conditions for 8 hours: Sato alone, Sato plus insulin, Sato plus LIF, Sato plus NT3. Subsequently, the cells were harvested, mRNA isolated and processed for Affymetrix gene chip hybridization (Rat 230 2.0). The experiments were conducted as independent triplicates. […] The 965 genes identified were subjected to cluster analysis. Distinct clusters of genes were regulated by insulin and LIF (FIG. 9) but not NT-3.

[3] = tested on: oligodendrocyte progenitors or mature oligodendrocytes; experiment: Real-time PCR confirmation of LIF-regulated genes in oligodendrocyte progenitors and mature oligodendrocytes; assay type: cell-based, rat; details: LIF for 5 or 24 hours
Description: For each of these six regulated genes, independent confirmation was conducted by real-time PCR. Either dividing oligodendrocyte progenitors or mature oligodendrocytes (as above) were exposed to LIF for either 5 or 24 hours, and measured gene induction against baseline (independent baseline cultures for each comparison). […] FIG. 10 illustrates typical results for secretogranin 2 and galanin.

mature oligodendrocytes = experiment: Western blot of galanin in concentrated media of mature oligodendrocytes; assay type: cell-based, rat; details: LIF 100 ng/ml, 48 hours, SATO plus insulin
Description: (§1) Translation of regulated cytokine and neuropeptide mRNA species into peptides/proteins was confirmed. Mature oligodendrocytes (as above) were plated in 10 cm dishes in SATO plus insulin and added LIF (100 ng/ml) to half the dishes for 48 hours. […] LIF-dependent galanin production in concentrated media from the OC cell line CG4 (FIG. 11) was confirmed. […] All Western blots were performed in triplicate from independent experiments. The LIF-dependent induction of a secretory phenotype in OC was confirmed by galanin immunocytochemistry of OC cultured in insulin +/− LIF for 48 hours (FIG. 13).

[4] = tested on: cultured primary rat astrocytes or an n-mye immortalized astrocytic cell line; experiment: Galanin production in response to LIF in astrocytes; assay type: cell-based
OC = experiment: Galanin immunocytochemistry of OC cultured in insulin +/- LIF; assay type: cell-based, rat; details: LIF-treated versus untreated OC, 48 hours
Description: as §1

EAE = details: cited from earlier work
cuprizone demyelination = details: exogenous LIF, wild-type litter mates; cited from earlier work

Row | Substance | OC survival in vitro ([1]; 1 nM galanin in Sato medium, versus Sato alone (nil)) | OC survival, galanin plus LIF versus galanin alone (synergy) ([1]; Sato medium) | OC survival in vitro ([1]; higher galanin concentrations (other than 1 nM), versus baseline (nil)) | regulation of genes (secretogranin II, cytokines/neuropeptides incl. galanin) on gene chip [2] | gene induction against baseline at the RNA level (six genes incl. secretogranin 2 and galanin) [3] | galanin production in concentrated media (mature oligodendrocytes) | induction of galanin production [4] | galanin staining of OC (OC) | reduction in density of oligodendrocytes within the spinal cord in established EAE (EAE; MBP-lacZ mice, LIF administration) | EAE severity (EAE; recombinant LIF administration) | severity of demyelination (cuprizone demyelination)
1 | galanin (GWTLNSAGYLLGPHAIDNHRSFSDKHGLT; ends and bridges not checked; UniProt P10683 33-61, looked up) [29 amino acid neuropeptide; recombinant rat galanin (Peninsula Biosciences) used in the survival assay] | highly significant survival effect; also recorded: increased | not synergistic with LIF | abolished; also recorded: No other galanin concentration is significantly different from baseline | – | – | – | – | – | – | – | –
2 | leukemia inhibitory factor [LIF] | – | – | – | significantly regulated | confirmed to be regulated | Induction of galanin production was observed | not observed | intense polar galanin staining | fully rescued this phenotype | reduces EAE severity | reduce the severity of demyelination
